According to US20240226228A1, “ANTIMICROBIAL PEPTOID HAVING IMPROVED SELECTIVITY AND ANTIMICROBIAL COMPOSITION COMPRISING SAME” (priority 2021, published 2024):
≈ marks a conversion by molar mass, not a printed value. Where two headings read alike, the source gives them in different places. Where a SMILES comes first, the peptide text is derived from it. [ ]: non-standard residue; d: D form. Gly(N(CH2)2(3-indolyl)) = O=C(O)CNCCc1c[nH]c2ccccc12; Nspe = C[C@H](NCC(=O)O)c1ccccc1; Nlys = NCCCCNCC(=O)O

Columns and labels:
[1] = system: red blood cells; experiment: Hemolysis assay; assay type: cell-based, Sprague-Dawley mouse
In short: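 Peptoid is mixed with 10% (v/v) PBS-washed erythrocytes (male Sprague-Dawley […], 13 weeks) and held 1 h at 37 °C. Hemolysis is calculated from 540 nm absorbance of the supernatant, with PBS as 0% and Triton X-100 as 100%.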

[2] = system: S. aureus ATCC 25923
In short: (§1)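 Cation-adjusted MHB2 cultures (18 h, subcultured 4 h) adjusted to 2×10^5–5×10^5 CFU/mL in medium with 0.02% BSA and 0.001% acetic acid.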

[3] = system: E. coli ATCC25922
In short: as §1

[4] = system: human keratinocytes (HaCaT); experiment: in vitro
Protocol: (§2) Human lung cells (MRC-5) were purchased from the Korean Cell Line Bank, and human keratinocytes (HaCaT) were purchased from the AmorePacific R&D Center. All cells were grown in a Dulbecco's modified Eagle's medium containing 10% fetal bovine serum under conditions of 5% CO2 and 37° C. To confirm the effect of a peptoid on cell growth, 3-(4,5-dimethylthiazol-2-yl)-5-(3-carboxymethoxyphenyl)-2-(4-sulfophenyl)-2H-tetrazolium (MTS) cell assay was performed to determine cell viability. An aliquot (100 μL) of a batch including 1.3×10^4 MRC-5 cells/mL or 3×10^4 HaCaT cells/mL was dispensed into each well of a 96-well plate. The cells were grown at 37° C. in a 5% CO2 humid atmosphere and allowed to adhere for 24 hours. When the cells reached approximately 70% confluency, the medium was replaced with serial dilutions of the peptoid stock and incubated for 24 hours. 20 μL of a CellTiter 96 aqueous non-radioactive cell proliferation assay reagent (Promega, USA) including a tetrazolium compound was added to each well.
(§3) The contents in the plate were metabolized by incubating at 37° C. for 4 hours. An MTS-formazan product of viable cells was measured at 490 nm using a microplate reader, and cell viability (%) was calculated by Equation 2 below and compared with untreated cells.
(§4) Cell viability (%)=[A/(Acontrol)]×100 [Equation 2]
(§5) In Equation 2, A is the absorbance of a test well, and Acontrol is the average absorbance of a well containing untreated cells.
(§6) The term “nd” shown in Table 19 below is the abbreviation for not determined, and indicates a value that is too small or too large to be measured.

[5] = system: Human lung cells (MRC-5); experiment: in vitro; conditions: for CC50: read-out: LC50 MRC-5, 24 hours incubation, concentration that causes 50% cell lethality
Protocol: as §2, §3, §4, §5, §6

[6] = HPLC to confirm peptoid decomposition after counter ion substitution; assay type: physicochemical; conditions: HPLC at 220 nm; HCl and AcOH
Protocol: FIGS. 76 to 83 are the HPLC results for Peptoids 1, 10, 11, 14, 15, 29, 32 and 37 of the present inventive concept to confirm the decomposition of the peptoids after counter ion substitution using (a) HCl and (b) AcOH.
Referring to FIGS. […], HPLC was performed for Peptoids 1, 10, 11, 14, 15, 29, 32 and 37 of the present inventive concept. Since the chloride (HCl) is a stronger acid than TFA, it can decompose acid-vulnerable peptoid compounds.

[7] = Table 18, TFA salt vs counter ion-substituted (HCl, AcOH) peptoids
[8] = Table 18, TFA salt vs counter ion-substituted peptoids
[9] = Tables 11-13, 24 hours at 37° C., maximum concentration 25 μM

Question: With `C[C@@H](c1ccccc1)N(CC(=O)N(CCCCN)CC(=O)N(CCc1c[nH]c2ccccc12)CC(=O)N(CCc1c[nH]c2ccccc12)CC(N)=O)C(=O)CN(CCCCN)C(=O)CN(CCCCN)C(=O)CN(C(=O)CN(C(=O)CN(CCCCN)C(=O)CN(C(=O)CN(C(=O)CNCCCCN)[C@@H](C)c1ccccc1)[C@@H](C)c1ccccc1)[C@@H](C)c1ccccc1)[C@@H](C)c1ccccc1` [Peptoid 29-2] (H-[Nlys][Nspe][Nspe][Nlys][Nspe][Nspe][Nlys][Nlys][Nspe][Nlys][Gly(N(CH2)2(3-indolyl))][Gly(N(CH2)2(3-indolyl))]-NH2) as the compound, how does the HC10 [1] read?
Answer: Its HC10 is >100/>100 μM.

Question: What about the HC50 [1] of the same compound?
Answer: Its HC50 is >100/>100 μM.

Question: What about the “Hmax (100 μM)” value [1] of the same compound?
Answer: Its value is 5.2 ± 0.2%.

Question: What about the “MIC S. aureus ATCC 25923” value [2, 7] of the same compound?
Answer: The value was 12.5 µM.

Question: What about the “MIC E. coli ATCC25922” value [3, 7] of the same compound?
Answer: Its value is 6.3 µM.

Question: What about the “LC50 / animal cell toxicity, HaCaT (in words)” value [4] of the same compound?
Answer: The value was “LC50 values of the peptoids increase”.

Question: And the “LC50 / animal cell toxicity, MRC-5 (in words)” value [5]?
Answer: Its value is “LC50 values of the peptoids increase”.

Question: What does the source list for `C[C@@H](c1ccccc1)N(CC(=O)N(CCCCN)CC(=O)N(CCc1c[nH]c2ccccc12)CC(=O)N(CCc1c[nH]c2ccccc12)CC(N)=O)C(=O)CN(CCCCN)C(=O)CN(CCCCN)C(=O)CN(C(=O)CN(C(=O)CN(CCCCN)C(=O)CN(C(=O)CN(C(=O)CNCCCCN)[C@@H](C)c1ccccc1)[C@@H](C)c1ccccc1)[C@@H](C)c1ccccc1)[C@@H](C)c1ccccc1` [Peptoid 29-1] (H-[Nlys][Nspe][Nspe][Nlys][Nspe][Nspe][Nlys][Nlys][Nspe][Nlys][Gly(N(CH2)2(3-indolyl))][Gly(N(CH2)2(3-indolyl))]-NH2)?
Answer: HC10 [1]: >100/>100 μM; HC50 [1]: >100/>100 μM; Hmax (100 μM) [1]: 4.3 ± 0.3%; MIC S. aureus ATCC 25923 [2, 7]: 12.5 µM; MIC E. coli ATCC25922 [3, 7]: 12.5 µM; LC50 / animal cell toxicity, HaCaT (in words) [4]: LC50 values of the peptoids increase; LC50 / animal cell toxicity, MRC-5 (in words) [5]: LC50 values of the peptoids increase

Question: For `C[C@@H](c1ccccc1)N(CC(N)=O)C(=O)CN(C(=O)CN(CCCCN)C(=O)CN(C(=O)CN(C(=O)CN(CCCCN)C(=O)CN(C(=O)CN(C(=O)CN(CCCCN)C(=O)CN(C(=O)CN(C(=O)CNCCCCN)[C@@H](C)c1ccccc1)[C@@H](C)c1ccccc1)[C@@H](C)c1ccccc1)[C@@H](C)c1ccccc1)[C@@H](C)c1ccccc1)[C@@H](C)c1ccccc1)[C@@H](C)c1ccccc1` [Peptoid 1-1, reference compound] (H-[Nlys][Nspe][Nspe][Nlys][Nspe][Nspe][Nlys][Nspe][Nspe][Nlys][Nspe][Nspe]-NH2), which HC10 [1, 8] is on record?
Answer: The HC10 was 27.6 µM.

Question: What about the HC50 [1, 8] of the same compound?
Answer: Its HC50 is 83.3 µM.

Question: And the “Hmax (100 μM)” value [1, 8]?
Answer: The value was 61.5 ± 0.9%.

Question: What about the “MIC S. aureus ATCC 25923” value [2, 7] of the same compound?
Answer: Its value is 1.6 µM.

Question: What about the “MIC E. coli ATCC25922” value [3, 7] of the same compound?
Answer: Its value is 6.3 µM.

Question: What about the CC50 [5] of the same compound?
Answer: The CC50 was 11.8 µM.

Question: For `C[C@@H](c1ccccc1)N(CC(N)=O)C(=O)CN(C(=O)CN(CCCCN)C(=O)CN(C(=O)CN(CCc1c[nH]c2ccccc12)C(=O)CN(CCCCN)C(=O)CN(CCc1c[nH]c2ccccc12)C(=O)CN(C(=O)CN(CCCCN)C(=O)CN(C(=O)CN(C(=O)CNCCCCN)[C@@H](C)c1ccccc1)[C@@H](C)c1ccccc1)[C@@H](C)c1ccccc1)[C@@H](C)c1ccccc1)[C@@H](C)c1ccccc1` [Peptoid 15, H-NLys-Nspe-Nspe-NLys-Nspe-NhTrp-NLys-NhTrp-Nspe-NLys-Nspe-Nspe-NH2], which “MIC S. aureus ATCC 25923” value ([2]; ATCC 25923) is on record?
Answer: Its value is 1.6 µM (≈ 3.04 µg/mL).

Question: And the “MIC S. aureus ATCC 25923” value [2, 9]?
Answer: Its value is 1.6 µM (≈ 3.04 µg/mL).

Question: And the “antimicrobial activity (in words)” value ([3]; E. coli and S. aureus, compared to Peptoid 1, parent peptoid or TFA salt as stated)?
Answer: Its value is “antimicrobial activity was reduced”.

Question: What about the “MIC E. coli ATCC25922” value [3, 7] of the same compound?
Answer: Its value is 3.1 µM.

Question: And the “MIC E. coli ATCC25922” value [3, 9]?
Answer: The value was 6.3 µM (≈ 12 µg/mL).

Question: And the “peptoid decomposition after counter ion substitution (in words)” value [6]?
Answer: The value was “almost no peptoid decomposition occurred”.

Question: With `C[C@@H](c1ccccc1)N(CC(N)=O)C(=O)CN(CCCCN)C(=O)CN(CCCCN)C(=O)CN(C(=O)CN(C(=O)CN(CCCCN)C(=O)CN(C(=O)CN(C(=O)CN(CCCCN)C(=O)CN(CCc1c[nH]c2ccccc12)C(=O)CN(CCc1c[nH]c2ccccc12)C(=O)CNCCCCN)[C@@H](C)c1ccccc1)[C@@H](C)c1ccccc1)[C@@H](C)c1ccccc1)[C@@H](C)c1ccccc1` [Peptoid 32-2] as the compound, how does the HC10 [1] read?
Answer: The HC10 was 83.0 µM.

Question: And the HC50 [1]?
Answer: Its HC50 is greater than 100 µM.

Question: And the “Hmax (100 μM)” value [1]?
Answer: The value was 13.8 ± 1.1%.

Question: What about the “MIC S. aureus ATCC 25923” value [2, 7] of the same compound?
Answer: Its value is 6.3 µM.

Question: What about the “MIC E. coli ATCC25922” value [3, 7] of the same compound?
Answer: The value was 6.3 µM.

Question: What about the “LC50 / animal cell toxicity, HaCaT (in words)” value [4] of the same compound?
Answer: Its value is “LC50 values of the peptoids increase”.

Question: And the “LC50 / animal cell toxicity, MRC-5 (in words)” value [5]?
Answer: Its value is “LC50 values of the peptoids increase”.

Question: What does the source list for `C[C@@H](c1ccccc1)N(CC(N)=O)C(=O)CN(C(=O)CN(CCCCN)C(=O)CN(C(=O)CN(C(=O)CN(CCCCN)C(=O)CN(C(=O)CN(C(=O)CN(CCCCN)C(=O)CN(C(=O)CN(C(=O)CNCCCCN)[C@@H](C)c1ccccc1)[C@@H](C)c1ccccc1)[C@@H](C)c1ccccc1)[C@@H](C)c1ccccc1)[C@@H](C)c1ccccc1)[C@@H](C)c1ccccc1)[C@@H](C)c1ccccc1` [Peptoid 1-2, reference compound] (H-[Nlys][Nspe][Nspe][Nlys][Nspe][Nspe][Nlys][Nspe][Nspe][Nlys][Nspe][Nspe]-NH2)?
Answer: HC10 [1, 8]: 25.0 µM; HC50 [1, 8]: 78.6 µM; Hmax (100 μM) [1, 8]: 58.2 ± 1.7%; MIC S. aureus ATCC 25923 [2, 7]: 3.1 µM; MIC E. coli ATCC25922 [3, 7]: 12.5 µM; CC50 [5]: 8.6 µM

Question: What does the source list for `C[C@@H](c1ccccc1)N(CC(N)=O)C(=O)CN(CCCCN)C(=O)CN(CCCCN)C(=O)CN(C(=O)CN(C(=O)CN(CCCCN)C(=O)CN(C(=O)CN(C(=O)CN(CCCCN)C(=O)CN(CCc1c[nH]c2ccccc12)C(=O)CN(CCc1c[nH]c2ccccc12)C(=O)CNCCCCN)[C@@H](C)c1ccccc1)[C@@H](C)c1ccccc1)[C@@H](C)c1ccccc1)[C@@H](C)c1ccccc1` [Peptoid 32-1]?
Answer: HC10 [1]: >100/>100 μM; HC50 [1]: >100/>100 μM; Hmax (100 μM) [1]: 8.7 ± 0.6%; MIC S. aureus ATCC 25923 [2, 7]: 6.3 µM; MIC E. coli ATCC25922 [3, 7]: 6.3 µM; LC50 / animal cell toxicity, HaCaT (in words) [4]: LC50 values of the peptoids increase
